Measured values: ChEMBL document CHEMBL3045542, “A quantitative structure-activity relationship study of herbicidal analogues of alpha-hydroxy-substituted 3-benzylidenepyrrolidene-2,4-diones” (2006)

Assays:
Assay type in all cases: functional
Echinochloa crus-galli [1] = experiment: Herbicidal activity against Echinochloa crus-galli (barnyard grass) assessed as inhibition of plant growth at 10 ug/mL by cup test
Echinochloa crus-galli [2] = experiment: Herbicidal activity against Echinochloa crus-galli (barnyard grass) assessed as inhibition of plant growth at 375 g/ha applied as pre-emergence treatment; details: for inhibition at 375 g/ha: Echinochloa crus-galli, pre-emergence
Echinochloa crus-galli [3] = experiment: Herbicidal activity against Echinochloa crus-galli (barnyard grass) assessed as inhibition of plant growth at 187.5 g/ha applied as pre-emergence treatment; details: for inhibition at 187.5 g/ha: Echinochloa crus-galli, pre-emergence
Echinochloa crus-galli [4] = experiment: Herbicidal activity against Echinochloa crus-galli (barnyard grass) assessed as inhibition of plant growth at 93.75 g/ha applied as pre-emergence treatment; details: for inhibition at 93.75 g/ha: Echinochloa crus-galli, pre-emergence
Echinochloa crus-galli [5] = experiment: Herbicidal activity against Echinochloa crus-galli (barnyard grass) assessed as inhibition of plant growth at 750 g/ha applied as pre-emergence treatment; details: for inhibition at 750 g/ha: Echinochloa crus-galli, pre-emergence
Digitaria sanguinalis [6] = experiment: Herbicidal activity against Digitaria sanguinalis (hairy crabgrass) assessed as inhibition of plant growth at 187.5 g/ha applied as pre-emergence treatment; details: for inhibition at 187.5 g/ha: Digitaria sanguinalis, pre-emergence
Digitaria sanguinalis [7] = experiment: Herbicidal activity against Digitaria sanguinalis (hairy crabgrass) assessed as inhibition of plant growth at 375 g/ha applied as pre-emergence treatment; details: for inhibition at 375 g/ha: Digitaria sanguinalis, pre-emergence
Digitaria sanguinalis [8] = experiment: Herbicidal activity against Digitaria sanguinalis (hairy crabgrass) assessed as inhibition of plant growth at 93.75 g/ha applied as pre-emergence treatment; details: for inhibition at 93.75 g/ha: Digitaria sanguinalis, pre-emergence
Digitaria sanguinalis [9] = experiment: Herbicidal activity against Digitaria sanguinalis (hairy crabgrass) assessed as inhibition of plant growth at 750 g/ha applied as pre-emergence treatment; details: for inhibition at 750 g/ha: Digitaria sanguinalis, pre-emergence
[10] = tested as the Zn salt or complex

COc1ccc(/C(O)=C2\C(=O)CN(C(C)C)C2=O)cc1
inhibition at 10 µg/mL (Echinochloa crus-galli [1]): 80%

Cc1ccccc1/C(O)=C1\C(=O)CN(C(C)C)C1=O
inhibition at 10 µg/mL (Echinochloa crus-galli [1]): 77%

Cc1cccc(/C(O)=C2\C(=O)CN(C(C)C)C2=O)c1
inhibition at 10 µg/mL (Echinochloa crus-galli [1]): 49%

Cc1ccc(/C(O)=C2\C(=O)CN(C(C)C)C2=O)cc1
inhibition at 10 µg/mL (Echinochloa crus-galli [1]): 77%

COc1ccccc1/C(O)=C1\C(=O)CN(C(C)(C)C)C1=O
inhibition at 10 µg/mL (Echinochloa crus-galli [1]): 75%

COc1ccc(/C(O)=C2\C(=O)CN(C(C)(C)C)C2=O)cc1
inhibition at 375 g/ha (Echinochloa crus-galli [2]): 0%
inhibition at 187.5 g/ha (Echinochloa crus-galli [3]): 0%
inhibition at 93.75 g/ha (Echinochloa crus-galli [4]): 0%
inhibition at 10 µg/mL (Echinochloa crus-galli [1]): 10%
inhibition at 750 g/ha (Echinochloa crus-galli [5]): 14%

Cc1ccccc1/C(O)=C1\C(=O)CN(C(C)(C)C)C1=O
inhibition at 10 µg/mL (Echinochloa crus-galli [1]): 64%

Cc1cccc(/C(O)=C2\C(=O)CN(C(C)(C)C)C2=O)c1
inhibition at 10 µg/mL (Echinochloa crus-galli [1]): 5%

Cc1ccc(/C(O)=C2\C(=O)CN(C(C)(C)C)C2=O)cc1
inhibition at 10 µg/mL (Echinochloa crus-galli [1]): 36%

Cc1cccc(/C(O)=C2\C(=O)CN(C)C2=O)c1
inhibition at 10 µg/mL (Echinochloa crus-galli [1]): 25%

CC(C)N1CC(=O)/C(=C(/O)c2ccccc2Cl)C1=O
inhibition at 10 µg/mL (Echinochloa crus-galli [1]): 51%

CC(C)N1CC(=O)/C(=C(/O)c2ccc(Cl)cc2)C1=O
inhibition at 10 µg/mL (Echinochloa crus-galli [1]): 25%

COc1ccccc1/C(O)=C1\C(=O)CN(C(C)C)C1=O
inhibition at 375 g/ha (Echinochloa crus-galli [2]): 28%
inhibition at 187.5 g/ha (Echinochloa crus-galli [3]): 0%
inhibition at 93.75 g/ha (Echinochloa crus-galli [4]): 0%
inhibition at 10 µg/mL (Echinochloa crus-galli [1]): 77%
inhibition at 750 g/ha (Echinochloa crus-galli [5]): 73%

COc1ccc(/C(O)=C2\C(=O)CN(Cc3ccccc3)C2=O)cc1
inhibition at 10 µg/mL (Echinochloa crus-galli [1]): 14%

CCCCCc1ccc(/C(O)=C2\C(=O)CN(C)C2=O)cc1
inhibition at 10 µg/mL (Echinochloa crus-galli [1]): 16%

CN1CC(=O)/C(=C(/O)c2cccc(Oc3ccccc3)c2)C1=O
inhibition at 10 µg/mL (Echinochloa crus-galli [1]): 53%

COc1ccc(C/C(O)=C2/C(=O)CN(C(C)C)C2=O)cc1
inhibition at 10 µg/mL (Echinochloa crus-galli [1]): 5%

COc1ccc(C(=O)C2=C(O)N(C(C)C)CCC2=O)cc1
inhibition at 10 µg/mL (Echinochloa crus-galli [1]): 0%

CCOc1ccc(C(=O)C2=C(O)N(C(C)C)CCC2=O)cc1
inhibition at 10 µg/mL (Echinochloa crus-galli [1]): 15%

COc1ccc(C(=O)C2=C(O)N(C(C)C)CCC2=O)c(OC)c1
inhibition at 10 µg/mL (Echinochloa crus-galli [1]): 6%

COc1ccc(/C([O-])=C2\C(=O)CN(C(C)C)C2=O)c(OC)c1.[Na+]
inhibition (INH) (Echinochloa crus-galli [2]): 100%
inhibition (INH) (Echinochloa crus-galli [3]): 100%
inhibition (INH) (Echinochloa crus-galli [4]): 73%
inhibition (INH) (Digitaria sanguinalis [6]): 90%
inhibition (INH) (Digitaria sanguinalis [7]): 100%
inhibition (INH) (Digitaria sanguinalis [8]): 10%
inhibition (INH) (Digitaria sanguinalis [9]): 100%
inhibition (INH) (Echinochloa crus-galli [5]): 100%

COc1ccc(/C([O-])=C2\C(=O)CN(C(C)C)C2=O)c(OC)c1.COc1ccc(/C([O-])=C2\C(=O)CN(C(C)C)C2=O)c(OC)c1.[Zn+2]
inhibition at 375 g/ha (Echinochloa crus-galli [2]; [10]): 100%
inhibition (INH) (Echinochloa crus-galli [3]): 85%
inhibition (INH) (Echinochloa crus-galli [4]): 72%
inhibition at 187.5 g/ha (Digitaria sanguinalis [6]; [10]): 82%
inhibition at 375 g/ha (Digitaria sanguinalis [7]; [10]): 100%
inhibition at 93.75 g/ha (Digitaria sanguinalis [8]; [10]): 15%
inhibition at 750 g/ha (Digitaria sanguinalis [9]; [10]): 100%
inhibition at 750 g/ha (Echinochloa crus-galli [5]; [10]): 100%

Cc1ccc(/C(O)=C2\C(=O)CN(C(C)C)C2=O)c(C)c1
inhibition at 10 µg/mL (Echinochloa crus-galli [1]): 74%

CC(C)N1CC(=O)/C(=C(/O)c2ccc(C(C)(C)C)cc2)C1=O
inhibition at 10 µg/mL (Echinochloa crus-galli [1]): 28%

CCCCCc1ccc(/C(O)=C2\C(=O)CN(C(C)C)C2=O)cc1
inhibition at 10 µg/mL (Echinochloa crus-galli [1]): 6%

CCCc1ccc(/C(O)=C2\C(=O)CN(C(C)C)C2=O)cc1
inhibition at 10 µg/mL (Echinochloa crus-galli [1]): 27%

CCOc1ccc(/C(O)=C2\C(=O)CN(C(C)C)C2=O)cc1
inhibition (INH) (Echinochloa crus-galli [2]): 100%
inhibition (INH) (Echinochloa crus-galli [3]): 95%
inhibition (INH) (Echinochloa crus-galli [4]): 36%
inhibition (INH) (Digitaria sanguinalis [6]): 66%
inhibition (INH) (Digitaria sanguinalis [7]): 77%
inhibition (INH) (Digitaria sanguinalis [8]): 5%
inhibition (INH) (Digitaria sanguinalis [9]): 93%
inhibition at 10 µg/mL (Echinochloa crus-galli [1]): 79%
inhibition (INH) (Echinochloa crus-galli [5]): 100%

COc1ccc(/C(O)=C2\C(=O)CN(C(C)C)C2=O)c(OC)c1
inhibition (INH) (Echinochloa crus-galli [2]): 94%
inhibition (INH) (Echinochloa crus-galli [3]): 56%
inhibition (INH) (Echinochloa crus-galli [4]): 10%
inhibition (INH) (Digitaria sanguinalis [6]): 84%
inhibition (INH) (Digitaria sanguinalis [7]): 95%
inhibition (INH) (Digitaria sanguinalis [8]): 20%
inhibition (INH) (Digitaria sanguinalis [9]): 95%
inhibition at 10 µg/mL (Echinochloa crus-galli [1]): 78%
inhibition (INH) (Echinochloa crus-galli [5]): 99%

C=CCOc1ccc(/C(O)=C2\C(=O)CN(C(C)C)C2=O)cc1
inhibition at 375 g/ha (Echinochloa crus-galli [2]): 95%
inhibition at 187.5 g/ha (Echinochloa crus-galli [3]): 55%
inhibition at 93.75 g/ha (Echinochloa crus-galli [4]): 30%
inhibition at 187.5 g/ha (Digitaria sanguinalis [6]): 36%
inhibition at 375 g/ha (Digitaria sanguinalis [7]): 74%
inhibition at 93.75 g/ha (Digitaria sanguinalis [8]): 0%
inhibition at 750 g/ha (Digitaria sanguinalis [9]): 79%
inhibition at 10 µg/mL (Echinochloa crus-galli [1]): 78%
inhibition at 750 g/ha (Echinochloa crus-galli [5]): 100%

C=CCOc1ccc(/C(O)=C2\C(=O)CN(C(C)C)C2=O)c(OC)c1
inhibition at 10 µg/mL (Echinochloa crus-galli [1]): 77%

CC(C)Oc1cccc(/C(O)=C2\C(=O)CN(C(C)C)C2=O)c1
inhibition at 10 µg/mL (Echinochloa crus-galli [1]): 9%

CC(C)N1CC(=O)/C(=C(/O)c2ccc(OCc3ccccc3)cc2)C1=O
inhibition at 10 µg/mL (Echinochloa crus-galli [1]): 39%

CCOc1ccc(/C(O)=C2\C(=O)CN(C(C)C)C2=O)c(OCC)c1
inhibition at 10 µg/mL (Echinochloa crus-galli [1]): 26%

CCCOc1ccc(/C(O)=C2\C(=O)CN(C(C)C)C2=O)cc1
inhibition at 10 µg/mL (Echinochloa crus-galli [1]): 73%

CCCCOc1ccc(/C(O)=C2\C(=O)CN(C(C)C)C2=O)cc1
inhibition at 10 µg/mL (Echinochloa crus-galli [1]): 21%

CCCCOc1cccc(/C(O)=C2\C(=O)CN(C(C)C)C2=O)c1
inhibition at 10 µg/mL (Echinochloa crus-galli [1]): 47%
